For the compound `CCCCN(CCCOc1ccc2ccccc2c1)c1ccc(OC)cc1`, the melting point stood at 127 °C.
In the case of `CCOC(=O)C(=CNc1ccnn1Cc1ccncc1)C(=O)OCC` it was 95 to 97 °C; in that of `CCn1cc(-c2cccc(C(F)(F)F)c2)c(=O)n1-c1cccc(C(F)(F)F)c1`, 110 to 111 °C; in that of `Cc1ccc(C(=C/C=C/C=O)c2ccc(C)cc2)cc1`, 92 to 93 °C.
Then `Cc1[nH]cc(C#N)c1-c1ccc(Cl)cc1C(=O)c1ccccc1Cl`, with 206 to 208 °C; and `CCNc1nc(Nc2ccccc2)ncc1C(C)=CC(=O)OCC`, with 148 to 150 °C.
Regarding `Cc1noc(C)c1Cn1cc(N2C(=O)CNC2=O)cn1`, the melting point was in the range of 169 to 171 °C.
In the case of `c1ccc(Oc2ccc(NC3=NN(c4ccccc4)CC3)cc2)cc1`, the melting point fell in the range of 114 to 116 °C.
For `CCCCSc1cc(C(=O)OC)cc(S(N)(=O)=O)c1Oc1ccccc1`, the melting point lay in the range of 122 to 123 °C.
Consider `Cc1ccc(S(=O)(=O)Nc2cc3c(c(C(=O)O)c2)NCCC3)cc1`, for which the melting point was found to be 251 °C.
`Cc1nn(C)c(-c2ccccc2)c1NC(N)=S` had a melting point of 258 to 260 °C.
Then `COC(=O)C(C(=O)c1cn2c3c(cccc13)CCC2)c1cn(C(=O)OC(C)(C)C)c2ccccc12` (centres undefined), with 86 to 91 °C.
With `O=C(Cl)N1CC(Oc2ccc(Cl)cc2)C1`, the melting point was 78 to 80 °C.
In the case of `CNC(=O)c1ccn2nc(-c3ccccc3)c(-c3ccc(=O)n(C(C)C)n3)c2c1` it was 225 to 226 °C; in that of `Cc1c(O)cc(N)cc1C(=O)O`, more than 250 °C.
`Nc1nc(-c2cccnc2Cl)c(-c2cccnc2Cl)s1`: the melting point is 273 to 274 °C.
In the case of `Cc1nc(Cl)cc(C2(c3ccc(Cl)cc3)CCC2)n1` it was 96 to 98 °C; in that of `CC(C)=CCN1c2ccccc2NC(=O)C1(C)C`, 146 to 147 °C; in that of `CC(=O)OCCOCn1ccc2c(Cl)ncnc21`, 67 to 88 °C.
In the case of `CCNc1ccc(-c2ccnc3c(C(=O)c4cccs4)cnn23)cc1` it was 130 to 132 °C; in that of `CC1ON(C)C(=O)C1=Cc1cc(C(C)(C)C)c(O)c(C(C)(C)C)c1` (centres undefined), 147 to 150 °C.
`C=Cc1cccc2[nH]cc(S(=O)(=O)c3ccccc3)c12` gave a melting point of 125 to 128 °C.
Then `COc1ccnc(CSc2nc3cc(C(F)(F)F)ccc3[nH]2)c1C`, with 148 °C.
In turn, `CCCCCCCCCCCCS(=O)(=O)CCOc1ccc(CCC(=O)C(F)(F)F)cc1` displayed a melting point of 55 to 56 °C.
Then `CC(O)(C#CI)c1ccc(OC(F)(F)F)cc1` (centres undefined), with 75 to 76 °C.
`CCCCCCCCCCCCCCCCCCOc1cc(NC(=O)OCc2ccccc2)cc(OCCCOc2ccccc2)c1` registered a melting point of 68 to 69 °C.
As for `O=C(O)c1cc(OCc2ccccc2)c(OCc2ccccc2)cn1`, the melting point was 204 °C.
In the case of `CNc1c(SC(F)(F)F)c(C#N)nn1-c1c(Cl)cc(C(F)(F)F)cc1Cl` it was 208 to 210 °C; in that of `O=C1CC(CF)(CF)Oc2ccc(C(F)(F)F)cc21`, 73 to 74.5 °C.
As for `CCc1c(-c2ccc(O)cc2)n(Cc2ccc(OCCN3CCCCC3)cc2)c2ccc(O)cc12`, the melting point lay in the range of 160 to 164 °C.
Compound `Cc1c(C(=O)Nc2ccc(N3CCC(NCCO)CC3)c(C#N)c2)cnn1-c1ccc(C(F)(F)F)cc1` had a melting point of 202 °C.
In the case of `Cc1cc(-c2ccc(-c3ccoc3)cc2)n(-c2ccc(S(C)(=O)=O)cc2)c1`, the melting point was in the range of 193 to 195 °C.
Then `O=C(CC(=O)c1ccc(O)cc1O)c1ccc(OCc2ccccc2)c(OCc2ccccc2)c1`, with 245 to 247 °C.
In the case of `Cc1cc(-n2ccnc2)ccc1N` it was 131 to 134 °C; in that of `COc1cccc(CN2Cc3cc(OC)c(O)cc3C(OC)C2)c1` (centres undefined), 133 to 134 °C; in that of `CN1NN=C(NC(=O)c2cccc3cccnc23)N1`, 222 to 223 °C.
The compound `COc1ccc(NC(=N)c2cccs2)cc1CO` showed a melting point of 191 to 192 °C.
In the case of `O=C1c2cccc3cc4ccccc4c(c23)C(=O)N1CCNCCNCCN1C(=O)c2cccc3cc4ccccc4c(c23)C1=O` it was 203 °C; in that of `OCCC12CC(c3ccccc31)c1ccccc12`, 99 to 100 °C; in that of `C=CC(O)C1OC(C)(C)OC1C(O)CO` (centres undefined), 73 to 74 °C.
Then `CCOc1cc2c(c3c1OC(C)(C)C3)C(c1cccc(C(=O)NC)c1)=NC(C)(C)C2`, with 173 to 174 °C; and `COc1ccccc1Nc1cccc(C(=O)Nc2ccccc2)c1`, with 153 to 154 °C.
Then `Brc1ccccc1Sc1nc2ccccc2n2cncc12`, with 191 to 192 °C; and `C1=CC(c2ccccc2)(c2ccc(N3CCOCC3)cc2)Oc2cc(N3CCOCC3)c3ccccc3c21` (centres undefined), with 187 to 188 °C; and `Oc1cnc2[nH]ccc2c1`, with 206 to 209 °C.
Regarding `Cc1nc(C(F)(F)F)ccc1C(Cl)=C1C(=O)C(C)(C)C(=O)C(C)(C)C1=O`, the melting point fell in the range of 92.5 to 93 °C.
The compound `CC(=O)NCc1ccc2ccn(C3CCN(CCc4ccc(Br)cc4)CC3)c2c1` displayed a melting point of 140 to 141 °C.
In turn, `CCCCCC[C@H](F)CO` yielded a melting point of 33 to 35 °C.
In the case of `COCCO[C@H]1c2ccn3c(C)c(C)nc3c2N[C@H](c2ccccc2)[C@H]1OC(=O)c1ccccc1` it was 78 to 80 °C; in that of `CCOC(=O)COc1ccccc1C(=O)Nc1ccc(Sc2ccccc2-c2nnn[nH]2)cc1`, 97 to 99 °C.
In turn, `CC(=O)CC(=O)Nc1ccc(Br)cc1C` yielded a melting point of 109 °C.
Then `COc1ncc(F)c2nc(S(=O)(=O)Nc3c(F)cc(Cl)cc3F)nn12`, with 203 to 204 °C.
As for `CC(C)(C)c1ccc(S(=O)(=O)C(CCl)Sc2ccccc2)cc1` (centres undefined), the melting point was 104 to 106 °C.
As to `C[C@@H](NC(=O)c1c[nH]c2ncc(-c3nn(C)c4cc(C(C)(C)C)ccc34)nc12)C(=O)N1CC(C#N)C1`, the melting point was in the range of 180 to 195 °C.
Then `COC(=O)C(NC(=O)c1ccccc1)c1ccc(-c2ccc(S(=O)(=O)O)cc2)cc1` (centres undefined), with more than 250 °C; and `COC(=O)CN(CC(COc1ccc(Cl)cc1)OC(C)=O)c1ccccc1` (centres undefined), with 82 °C.
Then `CCOc1ccc2c(C)c(CCO)c(=O)oc2c1OCC`, with 130 to 131 °C; and `O=C(Cc1ccc(Cl)cc1)Nc1ccc(-n2nc(C(F)(F)F)cc2C(F)(F)F)cc1`, with 122 to 124 °C.
In the case of `CCn1c2ccccc2c2cc3cccc(C=O)c3cc21` it was 130 to 133 °C; in that of `Cc1nc(Cc2ccc([N+](=O)[O-])cc2)sc1C`, 93 to 94 °C.
Regarding `CN1CCC23CC(=O)CCC2C1Cc1ccccc13` (centres undefined), the melting point is 164 to 166 °C.
Then `CCOC(=O)c1cn(CC)c2nc(N3CCN(C(=O)OCC)CC3)c(F)cc2c1=O`, with 171 to 173 °C; and `COc1ccc2nc(O)nc(O)c2c1`, with more than 290 °C; and `CCN(CC)c1ccc(/C=C/c2cc(/C=C/c3ccc4cc[nH]c4c3)[nH]n2)cc1`, with 201 to 204 °C.
Then `COc1cc2ccc(C(=O)CCCCBr)cc2cc1OC`, with 93 to 95 °C.
In the case of `COC(=O)CCCc1cc2cc(Cl)ccc2n1S(=O)(=O)c1ccc(N)c(N)c1` it was 158 to 160 °C; in that of `CN(c1ccc(CC(=O)O)cc1)c1cc(C(C)(C)C)c(O)c(C(C)(C)C)c1`, 181 to 182 °C; in that of `O=C(NCC1CCN(CC2(C(=O)O)CCCC2)CC1)N1C(=O)C2(CCCC2)c2ccccc21`, 188 °C.
For `CCNC=C(C(=O)C=Cc1ccc(N(C)C)c(C)c1)C(=O)OC`, the melting point lay within 98 to 100 °C.
Compound `C=Cn1cc(C(=O)OCC)c(=O)c2c(C)c(F)c(F)c(F)c21` came in with a melting point of 134 to 136 °C.
In the case of `CC[C@@]1(CC(=O)NCc2ccccc2)CCCN2CCc3c([nH]c4ccccc34)[C@@H]21` it was 179 to 180 °C.
Then `NS(=O)(=O)c1cccc(-c2cc(-c3nc(-c4ccc(C(F)(F)F)cc4F)cc(C(F)(F)F)n3)ccn2)c1`, with 210 °C.
In the case of `COc1ccc(NC(=O)CCc2ccc(-c3c(C)sc4nc(=NS(=O)(=O)c5ccc(C)cc5)sn34)cc2)cc1OC` it was 203 to 204 °C.
In turn, `COc1ccccc1Oc1c(NS(=O)(=O)c2ccc(C(C)(C)C)cc2)nc(SC)nc1OCCO` had a melting point of 139 to 140 °C.
In turn, `CCc1nc(Cc2ccc([N+](=O)[O-])cc2)no1` yielded a melting point of 69 to 70 °C.
The compound `Cc1cc(S(F)(F)(F)(F)F)ccc1C(=O)NC(=N)N` came in with a melting point of 183 to 184 °C.
In the case of `CC(C)n1cc(-c2nc(C(N)=O)c(N)nc2-c2ccc(F)cc2)ccc1=O` it was 236 °C; in that of `COc1ccc(C)c2c1C(C=O)C1CCCCC21` (centres undefined), 92 to 93 °C.
In the case of `Cc1cccc(C)c1N1CC(C)N(c2c(C)cccc2C)C1=N` (single isomer, unassigned; (+)) it was 99 to 101 °C; in that of `Cc1ccc(S(C)(=O)=O)c(S(=O)(=O)NC(C)(C)C)c1`, 129 to 133 °C.
In the case of `CC1(C)OC(=S)Nc2ccc(Br)cc21` it was 221 to 222 °C; in that of `CC(C)Cc1nc2ccc(Cl)cc2c(-c2ccccc2)c1CN`, 114 to 116 °C; in that of `OCCN(CCO)c1cc(-c2ccccn2)nc(-c2ccccn2)c1`, 171 to 172 °C.
In turn, `CCCCCCCCCCCCCCCC1Cc2cc(C(=O)O)ccc2N1` (racemic) returned a melting point of 102 to 104 °C.
In the case of `O=C1CCC(c2ccccc2)(c2ccccc2)C2CN(C(Cc3ccccc3)=NCc3cccnc3)CC12` (centres undefined) it was 102 °C; in that of `Nc1cc([N+](=O)[O-])ccc1CO`, 126 to 128 °C; in that of `CN1C(=O)[C@H](NC(=O)/C=C/c2ccc(C(F)(F)F)cc2)N=C(c2ccccc2)c2ccccc21`, 133 to 137 °C.
As to `Cn1c(=O)c2c(Cl)cccc2n2cnc(C(=O)OCC3CC3)c12`, the melting point worked out at 214 °C.
Then `CS(=O)(=O)c1ccc(-c2cnn(-c3ccc(F)c(F)c3)c(=O)c2-c2cccc(F)c2)cc1`, with 182 to 185 °C.

The melting point is the temperature of the solid-liquid transition.

The record behind these values is a melting point compilation (Tetko et al.; mined from patent text by program, amines drawn as free bases though some values may be those of a salt).
